Results reported in patent publication US20110105509A1 (Wyeth, LLC, priority 2009, published 2011).

Target: T1, CRTH2 (Homo sapiens, UniProt Q9Y5Y4)
T1 construct: expressed in transfected cells; host or cells: CHO cells
T1 sequence (Q9Y5Y4 1-395): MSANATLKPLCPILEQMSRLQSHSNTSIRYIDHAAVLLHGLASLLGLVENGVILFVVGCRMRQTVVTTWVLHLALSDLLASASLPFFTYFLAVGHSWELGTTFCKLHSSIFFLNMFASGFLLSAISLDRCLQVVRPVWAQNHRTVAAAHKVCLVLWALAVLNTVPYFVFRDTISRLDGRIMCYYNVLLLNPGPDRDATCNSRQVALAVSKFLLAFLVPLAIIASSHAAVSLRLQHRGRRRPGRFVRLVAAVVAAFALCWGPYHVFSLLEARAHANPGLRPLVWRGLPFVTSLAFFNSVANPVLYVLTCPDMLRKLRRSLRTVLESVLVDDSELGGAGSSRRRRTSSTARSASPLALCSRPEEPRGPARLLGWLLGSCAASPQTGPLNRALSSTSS
Experiment: FRET based competitive immunoassay (cAMP) in CRTH2 expressing CHO cells
Assay type: cell-based
Settings: CRTH2 expressing CHO cells incubated with forskolin and PGD2; Eu3+ cryptate-labeled anti-cAMP and d2-labeled cAMP
Protocol: FRET Assay: To evaluate potency compounds were tested in a FRET based competitive immunoassay in which CRTH2 expressing CHO cells were incubated in the presence of forskolin and PGD2 along with Eu3+ cryptate-labeled anti-cAMP and d2-labeled cAMP.

SMILES	IC50 [nM]
Cc1c(-c2nn(Cc3ccc(Cl)cc3)c(=O)c3ccccc23)c2cc(Cl)ccc2n1CC(=O)O [Example 1, 2-(5-Chloro-3-(3-(4-chlorobenzyl)-4-oxo-3,4-dihydrophthalazin-1-yl)-2-methyl-1H-indol-1-yl)acetic acid]	15
Cc1c(-c2nn(Cc3ccc(Cl)c(F)c3)c(=O)c3ccccc23)c2cc(Cl)ccc2n1CC(=O)O [Example 2, 2-(5-Chloro-3-(3-(4-chloro-3-fluorobenzyl)-4-oxo-3,4-dihydrophthalazin-1-yl)-2-methyl-1H-indol-1-yl)acetic acid]	18
Cc1c(-c2nn(Cc3ccc(C(F)(F)F)c(F)c3)c(=O)c3ccccc23)c2cc(Cl)ccc2n1CC(=O)O [Example 3, 2-(5-Chloro-3-(3-(3-fluoro-4-(trifluoromethyl)benzyl)-4-oxo-3,4-dihydrophthalazin-1-yl)-2-methyl-1H-indol-1-yl)acetic acid]	58
Cc1c(-c2nn(Cc3ccc(Cl)cc3)c(=O)c3ccccc23)c2cc(F)ccc2n1CC(=O)O [Example 4, 2-(3-(3-(4-Chlorobenzyl)-4-oxo-3,4-dihydropthalazin-1-yl)-5-fluoro-2-methyl-1H-indol-1-yl)acetic acid]	9
Cc1c(-c2nn(Cc3ccc(Cl)c(F)c3)c(=O)c3ccccc23)c2cc(F)ccc2n1CC(=O)O [Example 5, 2-(3-(3-(4-Chloro-3-fluorobenzyl)-4-oxo-3,4-dihydrophthalazin-1-yl)-5-fluoro-2-methyl-1H-indol-1-yl)acetic acid]	10
Cc1c(-c2nn(Cc3ccc(C(F)(F)F)c(F)c3)c(=O)c3ccccc23)c2cc(F)ccc2n1CC(=O)O [Example 6, 2-(5-Fluoro-3-(3-(3-fluoro-4-(trifluoromethyl)benzyl)-4-oxo-3,4-dihydrophthalazin-1-yl)-2-methyl-1H-indol-1-yl)acetic acid]	23
Cc1c(-c2nn(Cc3ccc(Cl)cc3Cl)c(=O)c3ccccc23)c2cc(F)ccc2n1CC(=O)O [Example 7, 2-(3-(3-(2,4-dichlorobenzyl)-4-oxo-3,4-dihydrophthalazin-1-yl)-5-fluoro-2-methyl-1H-indol-1-yl)acetic acid]	4
Cc1c(-c2ccc(=O)n(Cc3ccc(Cl)cc3)n2)c2cc(Cl)ccc2n1CC(=O)O [Example 9, 2-(5-Chloro-3-(1-(4-chlorobenzyl)-6-oxo-1,6-dihydropyridazin-3-yl)-2-methyl-1H-indol-1-yl)acetic acid]	21
Cc1c(-c2ccc(=O)n(Cc3ccccc3)n2)c2cc(Cl)cc(F)c2n1CC(=O)O [Example 10, 2-(3-(1-Benzyl-6-oxo-1,6-dihydropyridazin-3-yl)-5-chloro-7-fluoro-2-methyl-1H-indol-1-yl)acetic acid]	106
Cc1c(-c2nn(Cc3ccccc3)c(=O)c3ccccc23)c2cc(Cl)cc(F)c2n1CC(=O)O [Example 11, 2-(3-(3-Benzyl-4-oxo-3,4-dihydrophthalazin-1-yl)-5-chloro-7-fluoro-2-methyl-1H-indol-1-yl)acetic acid]	39
Cc1c(-c2nn(Cc3ccccc3)c(=O)c3ccccc23)c2cc(S(C)(=O)=O)cc(Cl)c2n1CC(=O)O [Example 14, 2-(3-(3-Benzyl-4-oxo-3,4-dihydrophthalazin-1-yl)-7-chloro-2-methyl-5-(methylsulfonyl)-1H-indol-1-yl)acetic acid]	169
Cc1c(-c2nn(Cc3ccccc3)c(=O)c3ccccc23)c2cc(S(C)(=O)=O)cc(F)c2n1CC(=O)O [Example 15, 2-(3-(3-Benzyl-4-oxo-3,4-dihydrophthalazin-1-yl)-7-fluoro-2-methyl-5-(methylsulfonyl)-1H-indol-1-yl)acetic acid]	214
COc1ccc2c(c1)c(-c1nn(Cc3ccccc3)c(=O)c3ccccc13)c(C)n2CC(=O)O [Example 16, 2-(3-(3-Benzyl-4-oxo-3,4-dihydrophthalazin-1-yl)-5-methoxy-2-methyl-1H-indol-1-yl)acetic acid]	31
Cc1c(-c2ccc(=O)n(Cc3ccccc3)n2)c2cc(S(C)(=O)=O)cc(F)c2n1CC(=O)O [Example 17, 2-(3-(1-Benzyl-6-oxo-1,6-dihydropyridazin-3-yl)-7-fluoro-2-methyl-5-(methylsulfonyl)-1H-indol-1-yl)acetic acid]	2780
COc1ccc2c(c1)c(-c1ccc(=O)n(Cc3ccccc3)n1)c(C)n2CC(=O)O [Example 18, 2-(3-(1-Benzyl-6-oxo-1,6-dihydropyridazin-3-yl)-5-methoxy-2-methyl-1H-indol-1-yl)acetic acid]	192
COc1ccc2c(c1)c(-c1nn(C(C)C)c(=O)c3ccccc13)c(C)n2CC(=O)O [Example 19, 2-(3-(3-Isopropyl-4-oxo-3,4-dihydrophthalazin-1-yl)-5-methoxy-2-methyl-1H-indol-1-yl)acetic acid]	109
Cc1c(Cc2ccc(=O)n(C(C)C)c2)c2ccccc2n1CC(=O)O [Example 22]	765

Next, values leading:

IC50 [nM]	SMILES
5	Cc1c(-c2ccc(=O)n(Cc3ccc(Cl)c(F)c3)n2)c2cc(Cl)ccc2n1CC(=O)O [Example 8, 2-(5-Chloro-3-(1-(4-chloro-3-fluorobenzyl)-6-oxo-1,6-dihydropyridazin-3-yl)-2-methyl-1H-indol-1-yl)acetic acid]
6	Cc1c(-c2ccc(=O)n(Cc3ccc(Cl)c(F)c3)n2)c2cc(F)ccc2n1CC(=O)O [Example 12, 2-(3-(1-(4-chloro-3-fluorobenzyl)-6-oxo-1,6-dihydropyridazin-3-yl)-5-fluoro-2-methyl-1H-indol-1-yl)acetic acid]
5	Cc1c(-c2ccc(=O)n(Cc3ccc(Cl)cc3)n2)c2cc(F)ccc2n1CC(=O)O [Example 13, 2-(3-(1-(4-Chlorobenzyl)-6-oxo-1,6-dihydropyridazin-3-yl)-5-fluoro-2-methyl-1H-indol-1-yl)acetic acid]
5	Cc1c(Cc2ccc(=O)n(Cc3ccc(F)cc3F)c2)c2cc(F)ccc2n1CC(=O)O [Example 20, 2-(3-((1-(2,4-Difluorobenzyl)-6-oxo-1,6-dihydropyridin-3-yl)methyl)-5-fluoro-2-methyl-1H-indol-1-yl)acetic acid]
18	Cc1c(Cc2ccc(=O)n(Cc3ccc(F)cc3F)c2)c2ccccc2n1CC(=O)O [Example 21, 2-(3-((1-(2,4-Difluorobenzyl)-6-oxo-1,6-dihydropyridin-3-yl)methyl)-2-methyl-1H-indol-1-yl)acetic acid]
17	Cc1c(Cc2ccc(=O)n(Cc3cc(F)c(F)cc3F)c2)c2cc(F)ccc2n1CC(=O)O [Example 23, 2-(5-Fluoro-2-methyl-3-((6-oxo-1-(2,4,5-trifluorobenzyl)-1,6-dihydro-pyridin-3-yl)methyl)-1H-indol-1-yl)acetic acid]
28	Cc1c(Cc2ccc(=O)n(Cc3cc(F)c(F)cc3F)c2)c2ccccc2n1CC(=O)O [Example 24]
7	Cc1c(Cc2ccc(=O)n(Cc3cc(F)ccc3F)c2)c2ccccc2n1CC(=O)O [Example 25, 2-(3-((1-(2,5-Difluorobenzyl)-6-oxo-1,6-dihydropyridin-3-yl)methyl)-2-methyl-1H-indol-1-yl)acetic acid]
8	Cc1c(Cc2ccc(=O)n(Cc3cc(F)ccc3F)c2)c2cc(F)ccc2n1CC(=O)O [Example 26, 2-(3-((1-(2,5-Difluorobenzyl)-6-oxo-1,6-dihydropyridin-3-yl)methyl)-5-fluoro-2-methyl-1H-indol-1-yl)acetic acid]
137	Cc1c(Cc2ccc(=O)n(C(C)C)c2)c2cc(F)ccc2n1CC(=O)O [Example 27, 2-(5-fluoro-3-((1-isopropyl-6-oxo-1,6-dihydropyridin-3-yl)methyl)-2-methyl-1H-indol-1-yl)acetic acid]
17	Cc1c(Cc2ccc(=O)n(Cc3cccc(F)c3F)c2)c2cc(F)ccc2n1CC(=O)O [Example 28, 2-(3-((1-(2,3-Difluorobenzyl)-6-oxo-1,6-dihydropyridin-3-yl)methyl)-5-fluoro-2-methyl-1H-indol-1-yl)acetic acid]
72	Cc1c(Cc2ccc(=O)n(Cc3cccc(F)c3F)c2)c2ccccc2n1CC(=O)O [Example 29]
153	Cc1c(Cc2ccc(=O)n(Cc3ccc(F)c(F)c3)c2)c2ccccc2n1CC(=O)O [Example 30, 2-(3-((1-(3,4-Difluorobenzyl)-6-oxo-1,6-dihydropyridin-3-yl)methyl)-2-methyl-1H-indol-1-yl)acetic acid]
41	Cc1c(Cc2ccc(=O)n(Cc3ccccc3F)c2)c2ccccc2n1CC(=O)O [Example 31, 2-(3-((1-(2-Fluorobenzyl)-6-oxo-1,6-dihydropyridin-3-yl)methyl)-2-methyl-1H-indol-1-yl)acetic acid]
8	Cc1c(Cc2ccc(=O)n(Cc3ccccc3F)c2)c2cc(F)ccc2n1CC(=O)O [Example 32, 2-(5-Fluoro-3-((1-(2-fluorobenzyl)-6-oxo-1,6-dihydropyridin-3-yl)methyl)-2-methyl-1H-indol-1-yl)acetic acid]
11	Cc1c(Cc2ccc(=O)n(Cc3ccc(F)c(F)c3)c2)c2cc(F)ccc2n1CC(=O)O [Example 33, 2-(3-((1-(3,4-difluorobenzyl)-6-oxo-1,6-dihydropyridin-3-yl)methyl)-5-fluoro-2-methyl-1H-indol-1-yl)acetic acid]
54	Cc1c(Cc2ccc(=O)n(Cc3cccc(F)c3)c2)c2ccccc2n1CC(=O)O [Example 34, 2-(3-((1-(3-Fluorobenzyl)-6-oxo-1,6-dihydropyridin-3-yl)methyl)-2-methyl-1H-indol-1-yl)acetic acid]
